Reference: paper PMC6208384 (2018)

How the values were obtained:
[1] = tested on: DIR2s_GAAACAC (RNA, aptamer) GGAUGCGCCUUGAAAAGCCUGCGAAACACGCAGCUGGUGAAUGACAGCUAUGGCGCAUCC; assay: fluorescence competition; settings: 150 mM NaCl, 5 mM MgCl2; 50 mM Tris pH 7.4, 20 °C; OTB-SO3 displaced, 500 nM RNA, 600 nM OTB-SO3
[2] = tested on: Fab BL3-6, PDB:6DB9_2+PDB:6DB9_3; assay: filter binding; settings: 5 mM Mg2+; no dye mentioned; Filter binding: 50 mM Tris pH 7.4, 150 mM NaCl, 5 mM MgCl2, 0.1 U/uL RNase inhibitor, 2 nM-2 uM Fab, 30 min; RNA refolded at 50 C then RT (binding temperature …)
[3] = tested on: 0 bp P1 (RNA, aptamer) GGAAAAGCCCGCGAAACACGCAGCUGGUGAAUGACAGCU; assay: fluorescence activation; settings: 150 mM NaCl, 5 mM MgCl2; 50 mM Tris pH 7.4, 20 °C; RNA 3 µM, dye 6 µM; ca. 80% of WT fluorescence
[4] = tested on: G39, A40, A41 to U (RNA, aptamer) GGAUGCGCCUUGAAAAGCCUGCGAAACACGCAGCUGGUUUUUGACAGCUAUGGCGCAUCC; assay: fluorescence activation; settings: 150 mM NaCl, 5 mM MgCl2; 50 mM Tris pH 7.4, 20 °C; RNA 3 µM, dye 6 µM; fluorescence abolished
[5] = tested on: A41U (RNA, aptamer) GGAUGCGCCUUGAAAAGCCUGCGAAACACGCAGCUGGUGAUUGACAGCUAUGGCGCAUCC; assay: fluorescence activation; settings: 150 mM NaCl, 5 mM MgCl2; 50 mM Tris pH 7.4, 20 °C; RNA 3 µM, dye 6 µM; fluorescence as WT
[6] = tested on: 5 bp P1 (RNA, aptamer) GGCCUUGAAAAGCCUGCGAAACACGCAGCUGGUGAAUGACAGCUAUGGCC; assay: fluorescence activation; settings: 150 mM NaCl, 5 mM MgCl2; 50 mM Tris pH 7.4, 20 °C; RNA 3 µM, dye 6 µM; fluorescence as WT
[7] = tested on: DIR2s_WT (UUCG) (RNA, aptamer) GGAUGCGCCUUGAAAAGCCUGCUUCGGCAGCUGGUGAAUGACAGCUAUGGCGCAUCC; assay: fluorescence activation; settings: 150 mM NaCl, 5 mM MgCl2; 50 mM Tris pH 7.4, 20 °C
[8] = tested on: DIR2s_GAAACAC (RNA, aptamer) GGAUGCGCCUUGAAAAGCCUGCGAAACACGCAGCUGGUGAAUGACAGCUAUGGCGCAUCC; assay: fluorescence titration; settings: 150 mM NaCl, 5 mM MgCl2; 50 mM Tris pH 7.4, 20 °C; construct assigned from review file b5063
[9] = tested on: A40U (RNA, aptamer) GGAUGCGCCUUGAAAAGCCUGCGAAACACGCAGCUGGUGUAUGACAGCUAUGGCGCAUCC; assay: fluorescence activation; settings: 150 mM NaCl, 5 mM MgCl2; 50 mM Tris pH 7.4, 20 °C; RNA 3 µM, dye 6 µM; fluorescence as WT
[10] = tested on: Abasic A40 (RNA, aptamer, abasic at 40) GGAUGCGCCUUGAAAAGCCUGCGAAACACGCAGCUGGUGNAUGACAGCUAUGGCGCAUCC; assay: fluorescence activation; settings: 150 mM NaCl, 5 mM MgCl2; 50 mM Tris pH 7.4, 20 °C; RNA 3 µM, dye 6 µM; fluorescence diminished
[11] = tested on: A15C; A40, A41 to G (RNA, aptamer) GGAUGCGCCUUGAACAGCCUGCGAAACACGCAGCUGGUGGGUGACAGCUAUGGCGCAUCC; assay: fluorescence activation; settings: 150 mM NaCl, 5 mM MgCl2; 50 mM Tris pH 7.4, 20 °C; RNA 3 µM, dye 6 µM; fluorescence abolished
[12] = tested on: Abasic G39 (RNA, aptamer, abasic at 39) GGAUGCGCCUUGAAAAGCCUGCGAAACACGCAGCUGGUNAAUGACAGCUAUGGCGCAUCC; assay: fluorescence activation; settings: 150 mM NaCl, 5 mM MgCl2; 50 mM Tris pH 7.4, 20 °C; RNA 3 µM, dye 6 µM; fluorescence diminished
[13] = tested on: DIR2s_GAAACAC (RNA, aptamer) GGAUGCGCCUUGAAAAGCCUGCGAAACACGCAGCUGGUGAAUGACAGCUAUGGCGCAUCC; assay: X-ray crystal structure, 1.86 Å; settings: 10 mM MgCl2, 1.8 M Li2SO4; 50 mM MES pH 5.6; ternary complex with Fab BL3-6
[14] = tested on: DIR2s_GAAACAC (RNA, aptamer) GGAUGCGCCUUGAAAAGCCUGCGAAACACGCAGCUGGUGAAUGACAGCUAUGGCGCAUCC; assay: fluorescence activation; settings: 150 mM NaCl, 5 mM MgCl2; 50 mM Tris pH 7.4, 20 °C; loop version (UUCG or GAAACAC) not stated

Molecule: CN1C(=CC=Cc2cc[n+](CCCS(=O)(=O)[O-])c3ccccc23)C(C)(C)c2ccccc21
- binding [1]: yes

Molecule: GGAUGCGCCUUGAAAAGCCUGCGAAACACGCAGCUGGUGAAUGACAGCUAUGGCGCAUCC [DIR2s_GAAACAC RNA]
- Kd [2]: 67 nM

Molecule: CN1/C(=C/c2sc3ccccc3[n+]2CCCS(=O)(=O)[O-])Oc2ccccc21
- binding [3]: yes
- binding [4]: no
- binding [5]: yes
- binding [6]: yes
- binding [7]: yes
- Kd [8]: 708 ± 16 nM
- binding [9]: yes
- binding [10]: weak
- binding [11]: no
- binding [12]: weak
- binding [13]: yes

Molecule: CN1C=CC(=Cc2sc3ccccc3[n+]2CC(=O)NCCOCCOCCOCCNC(=O)CCCC[C@@H]2SC[C@@H]3NC(=O)N[C@@H]32)c2ccccc21
- binding [14]: yes
